Assay results published in US20250171420A1 (Monte Rosa Therapeutics, Inc., priority 2022, published 2025).

Each compound was assayed against T1, CK1α (Homo sapiens, UniProt P48729) (assay: CK1α NanoBit Assay (HiBiT-tagged CSNK1A1, HEK293 clonal lines)). Settings: HEK293 HiBiT-CSNK1A1/LgBiT cells, 24 h incubation.
T1 construct: HEK293 clonal lines with CRISPR KI HiBiT tag on CSNK1A1
Assay type: cell-based
Procedure: HEK293 clonal lines with CRISPR KI HiBiT tag on CSNK1A1 and stably expressing LgBiT protein were obtained from Promega (Madison, WI). […] Cells were incubated at 37° C., 5% CO2 for 24 hours and then signal was read on a Pherastar FSX using “LUM plus” optic module.
Data analysis was performed in Scinamic (Scinamic, Cambridge, MA). Luminescence response (R) was calculated by the formula: response=100*(S−N)/(P−N) where S is the signal of the well, N and P the mean negative and positive control values respectively of the same plate.
DC50 data are reported in Table 2 for compounds in Table 1. In Table 2 below, According to the code, A represents a DC50 value of ≤0.1 μM, B represents a DC50 value>0.1 μM and ≤1 μM, C represents an DC50 value>1 μM.

T1 sequence (P48729 whole entry): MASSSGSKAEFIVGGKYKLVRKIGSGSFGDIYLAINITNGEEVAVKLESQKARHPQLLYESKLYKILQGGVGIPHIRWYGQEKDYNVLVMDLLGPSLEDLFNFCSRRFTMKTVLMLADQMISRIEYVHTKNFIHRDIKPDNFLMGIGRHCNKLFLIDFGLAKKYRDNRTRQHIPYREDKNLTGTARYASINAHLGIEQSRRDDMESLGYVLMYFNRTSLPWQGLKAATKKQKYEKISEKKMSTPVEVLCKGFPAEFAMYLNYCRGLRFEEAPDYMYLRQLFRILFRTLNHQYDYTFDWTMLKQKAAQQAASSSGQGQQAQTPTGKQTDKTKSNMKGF
T1 sequence (Q96SW2 whole entry, further chain): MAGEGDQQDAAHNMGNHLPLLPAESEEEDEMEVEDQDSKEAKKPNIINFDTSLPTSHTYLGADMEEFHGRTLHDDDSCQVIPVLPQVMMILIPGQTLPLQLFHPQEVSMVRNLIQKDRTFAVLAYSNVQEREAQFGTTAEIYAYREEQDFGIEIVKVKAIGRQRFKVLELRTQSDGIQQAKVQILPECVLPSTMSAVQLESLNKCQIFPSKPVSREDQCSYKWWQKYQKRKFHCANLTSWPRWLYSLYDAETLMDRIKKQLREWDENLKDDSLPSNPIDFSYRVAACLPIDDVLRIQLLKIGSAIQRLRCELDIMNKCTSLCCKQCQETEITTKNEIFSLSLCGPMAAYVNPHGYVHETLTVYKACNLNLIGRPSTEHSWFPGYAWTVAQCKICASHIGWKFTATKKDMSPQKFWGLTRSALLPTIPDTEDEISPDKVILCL
T1 sequence (Q16531 2-1140 partner limits assumed): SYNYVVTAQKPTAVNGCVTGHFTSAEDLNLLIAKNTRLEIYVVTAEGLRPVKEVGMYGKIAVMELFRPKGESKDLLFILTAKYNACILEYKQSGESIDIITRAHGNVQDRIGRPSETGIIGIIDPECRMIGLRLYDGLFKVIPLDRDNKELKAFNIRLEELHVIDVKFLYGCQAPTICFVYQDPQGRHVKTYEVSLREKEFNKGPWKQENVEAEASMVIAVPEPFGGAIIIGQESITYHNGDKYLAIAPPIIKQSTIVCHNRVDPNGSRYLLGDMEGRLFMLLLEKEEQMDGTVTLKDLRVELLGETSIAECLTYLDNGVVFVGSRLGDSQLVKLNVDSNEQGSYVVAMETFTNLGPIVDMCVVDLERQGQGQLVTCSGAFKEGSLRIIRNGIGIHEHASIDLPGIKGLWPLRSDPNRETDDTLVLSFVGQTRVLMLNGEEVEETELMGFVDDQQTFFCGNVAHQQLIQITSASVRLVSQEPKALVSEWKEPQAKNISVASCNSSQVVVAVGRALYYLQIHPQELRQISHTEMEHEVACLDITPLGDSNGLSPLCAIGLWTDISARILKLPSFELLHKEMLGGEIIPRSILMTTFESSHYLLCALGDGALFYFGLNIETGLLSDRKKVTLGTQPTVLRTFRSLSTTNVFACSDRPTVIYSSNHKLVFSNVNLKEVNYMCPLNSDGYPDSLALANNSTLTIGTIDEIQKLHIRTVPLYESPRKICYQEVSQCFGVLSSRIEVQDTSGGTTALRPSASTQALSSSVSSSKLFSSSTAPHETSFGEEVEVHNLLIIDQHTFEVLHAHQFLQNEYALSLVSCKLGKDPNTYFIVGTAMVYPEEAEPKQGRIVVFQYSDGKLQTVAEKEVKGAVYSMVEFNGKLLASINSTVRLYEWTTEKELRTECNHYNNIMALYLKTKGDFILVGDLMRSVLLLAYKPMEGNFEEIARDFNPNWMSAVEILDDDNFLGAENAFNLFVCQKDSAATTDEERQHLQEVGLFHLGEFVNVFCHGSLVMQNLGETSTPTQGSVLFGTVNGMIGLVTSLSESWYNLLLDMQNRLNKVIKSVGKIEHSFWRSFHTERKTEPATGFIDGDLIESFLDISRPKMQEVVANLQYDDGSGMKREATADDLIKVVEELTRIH

Row | SMILES | DC50
1 | O=C1CCC(N2Cc3cc(NC(=O)N4CCc5ncccc54)ccc3C2=O)C(=O)N1 (stereo not drawn) [Compound 108, N-(2-(2,6-dioxopiperidin-3-yl)-1-oxoisoindolin-5-yl)-2,3-dihydro-1H-pyrrolo[3,2-b]pyridine-1-carboxamide] | 0.1 to 1 µM
2 | O=C1CCC(N2Cc3cc(NC(=O)N4CCc5cnccc54)ccc3C2=O)C(=O)N1 (stereo not drawn) [Compound 110, N-(2-(2,6-dioxopiperidin-3-yl)-1-oxoisoindolin-5-yl)-2,3-dihydro-1H-pyrrolo[3,2-c]pyridine-1-carboxamide] | 0.1 to 1 µM
3 | Cc1cc2c(cn1)CCN2C(=O)Nc1ccc2c(c1)CN(C1CCC(=O)NC1=O)C2=O (stereo not drawn) [Compound 113] | > 1 µM
4 | O=C1CCC(N2Cc3cc(NC(=O)N4CCCc5ccc(C(F)(F)F)cc54)ccc3C2=O)C(=O)N1 (stereo not drawn) [Compound 114] | < 0.1 µM
5 | Cc1cc(C)c2c(n1)CN(C(=O)Nc1ccc3c(c1)CN(C1CCC(=O)NC1=O)C3=O)C2 (stereo not drawn) [Compound 118] | < 0.1 µM
6 | O=C1CCC(N2Cc3cc(NC(=O)N4Cc5cccnc5C4)ccc3C2=O)C(=O)N1 (stereo not drawn) [Compound 121] | 0.1 to 1 µM
7 | N#Cc1cccc2c1CCCN2C(=O)Nc1ccc2c(c1)CN(C1CCC(=O)NC1=O)C2=O (stereo not drawn) [Compound 126] | > 1 µM
8 | O=C1CCC(N2Cc3cc(NC(=O)N4CCCc5ccc(C(F)F)cc54)ccc3C2=O)C(=O)N1 (stereo not drawn) [Compound 129] | < 0.1 µM
9 | N#Cc1ccc2c(c1)CN(C(=O)Nc1ccc3c(c1)CN(C1CCC(=O)NC1=O)C3=O)C2 (stereo not drawn) [Compound 133] | < 0.1 µM
10 | COc1cccc2c1CN(C(=O)Nc1ccc3c(c1)CN(C1CCC(=O)NC1=O)C3=O)C2 (stereo not drawn) [Compound 134] | < 0.1 µM
11 | O=C1CCC(N2Cc3cc(NC(=O)N4Cc5ccccc5C5(CC5)C4)ccc3C2=O)C(=O)N1 (stereo not drawn) [Compound 136] | < 0.1 µM
12 | O=C1CCC(N2Cc3cc(NC(=O)N4Cc5ccncc5C4)ccc3C2=O)C(=O)N1 (stereo not drawn) [Compound 144] | 0.1 to 1 µM
13 | O=C1CCC(N2Cc3cc(NC(=O)N4CCCc5ncccc54)ccc3C2=O)C(=O)N1 (stereo not drawn) [Compound 145] | > 1 µM
14 | O=C1CCC(N2Cc3cc(NC(=O)N4CCCc5cccnc54)ccc3C2=O)C(=O)N1 (stereo not drawn) [Compound 146] | 0.1 to 1 µM
15 | N#Cc1ccc2c(c1)CCCN2C(=O)Nc1ccc2c(c1)CN(C1CCC(=O)NC1=O)C2=O (stereo not drawn) [Compound 150] | 0.1 to 1 µM
16 | O=C1CCC(N2Cc3cc(NC(=O)N4CCc5ccncc5C4)ccc3C2=O)C(=O)N1 (stereo not drawn) [Compound 151] | > 1 µM

Row | SMILES | DC50
17 | O=C1CCC(N2Cc3cc(NC(=O)N4CCCc5cccc(OC(F)F)c54)ccc3C2=O)C(=O)N1 (stereo not drawn) [Compound 159] | 0.1 to 1 µM
18 | O=C1CCC(N2Cc3cc(NC(=O)N4CCCc5c4cccc5C(F)(F)F)ccc3C2=O)C(=O)N1 (stereo not drawn) [Compound 160] | 0.1 to 1 µM
19 | O=C1CCC(N2Cc3cc(NC(=O)N4Cc5ccc(C(F)F)cc5C4)ccc3C2=O)C(=O)N1 (stereo not drawn) [Compound 168] | < 0.1 µM
20 | O=C1CCC(N2Cc3cc(NC(=O)N4CC5CC5c5cc(Br)ccc54)ccc3C2=O)C(=O)N1 (stereo not drawn) [Compound 173] | < 0.1 µM
21 | Cc1ccc2c(c1)CN(C(=O)Nc1ccc3c(c1)CN(C1CCC(=O)NC1=O)C3=O)C2 (stereo not drawn) [Compound 175] | < 0.1 µM
22 | N#Cc1cccc2c1CCN(C(=O)Nc1ccc3c(c1)CN(C1CCC(=O)NC1=O)C3=O)C2 (stereo not drawn) [Compound 176] | 0.1 to 1 µM
23 | O=C1CCC(N2Cc3cc(NC(=O)N4Cc5ccc(Cl)cc5C4)ccc3C2=O)C(=O)N1 (stereo not drawn) [Compound 177] | < 0.1 µM
24 | CC(C)(C)c1ccc2c(c1)CN(C(=O)Nc1ccc3c(c1)CN(C1CCC(=O)NC1=O)C3=O)CC2 (stereo not drawn) [Compound 179] | < 0.1 µM
25 | O=C1CCC(N2Cc3cc(NC(=O)N4CCc5ccc(F)cc5C4)ccc3C2=O)C(=O)N1 (stereo not drawn) [Compound 180] | < 0.1 µM
26 | O=C1CCC(N2Cc3cc(NC(=O)N4Cc5cccc(Cl)c5C4)ccc3C2=O)C(=O)N1 (stereo not drawn) [Compound 182] | < 0.1 µM
27 | O=C1CCC(N2Cc3cc(NC(=O)N4CCc5ccc(-c6ccccc6)cc5C4)ccc3C2=O)C(=O)N1 (stereo not drawn) [Compound 183] | < 0.1 µM
28 | O=C1CCC(N2Cc3cc(NC(=O)N4CCc5c(F)cccc5C4)ccc3C2=O)C(=O)N1 (stereo not drawn) [Compound 184] | < 0.1 µM
29 | O=C1CCC(N2Cc3cc(NC(=O)N4CCc5cc(F)ccc5C4)ccc3C2=O)C(=O)N1 (stereo not drawn) [Compound 193] | < 0.1 µM
30 | CC(C)(C)c1ccc2c(c1)CCN(C(=O)Nc1ccc3c(c1)CN(C1CCC(=O)NC1=O)C3=O)C2 (stereo not drawn) [Compound 194] | < 0.1 µM
31 | O=C1CCC(N2Cc3cc(NC(=O)N4CCc5cccnc5C4)ccc3C2=O)C(=O)N1 (stereo not drawn) [Compound 195] | 0.1 to 1 µM
32 | COc1ccc2c(c1)CN(C(=O)Nc1ccc3c(c1)CN(C1CCC(=O)NC1=O)C3=O)C2 (stereo not drawn) [Compound 199] | < 0.1 µM

The remaining lines, values ahead:

Row | DC50 | SMILES
33 | < 0.1 µM | O=C1CC[C@@H](N2Cc3cc(NC(=O)N4c5ccccc5C[C@@H]4C(F)(F)F)ccc3C2=O)C(=O)N1 (single isomer, unassigned) [Compound 360]
34 | < 0.1 µM | O=C1CC[C@H](N2Cc3cc(NC(=O)N4c5ccccc5C[C@H]4C(F)(F)F)ccc3C2=O)C(=O)N1 (single isomer, unassigned) [Compound 361]
35 | < 0.1 µM | O=C1CCC(N2Cc3cc(NC(=O)N4CCc5ccccc5C4)ccc3C2=O)C(=O)N1 (stereo not drawn) [Compound 104, N-(2-(2,6-dioxopiperidin-3-yl)-1-oxoisoindolin-5-yl)-3,4-dihydroisoquinoline-2(1H)-carboxamide]
36 | 0.1 to 1 µM | O=C1CCC(N2Cc3cc(NC(=O)N4CCCc5ccccc54)ccc3C2=O)C(=O)N1 (stereo not drawn) [Compound 107, N-(2-(2,6-dioxopiperidin-3-yl)-1-oxoisoindolin-5-yl)-3,4-dihydroquinoline-1(2H)-carboxamide]
37 | < 0.1 µM | O=C1CCC(N2Cc3cc(NC(=O)N4CCCc5ccc(F)cc54)ccc3C2=O)C(=O)N1 (stereo not drawn) [Compound 116]
38 | < 0.1 µM | CC1CN(C(=O)Nc2ccc3c(c2)CN(C2CCC(=O)NC2=O)C3=O)c2ccccc21 (stereo not drawn) [Compound 119]
39 | 0.1 to 1 µM | CC1CCc2ccccc2N1C(=O)Nc1ccc2c(c1)CN(C1CCC(=O)NC1=O)C2=O (stereo not drawn) [Compound 120]
40 | 0.1 to 1 µM | Cc1cccc2c1CCCN2C(=O)Nc1ccc2c(c1)CN(C1CCC(=O)NC1=O)C2=O (stereo not drawn) [Compound 122]
41 | < 0.1 µM | O=C1CCC(N2Cc3cc(NC(=O)N4c5ccccc5C[C@@H]4CO)ccc3C2=O)C(=O)N1 (stereo partly drawn) [Compound 125]
42 | < 0.1 µM | O=C1CCC(N2Cc3cc(NC(=O)N4CCC(C(F)(F)F)c5ccccc54)ccc3C2=O)C(=O)N1 (stereo not drawn) [Compound 127]
43 | 0.1 to 1 µM | C[C@@H]1C[C@H](C)c2ccccc2N1C(=O)Nc1ccc2c(c1)CN(C1CCC(=O)NC1=O)C2=O (stereo partly drawn) [Compound 128]
44 | < 0.1 µM | O=C1CCC(N2Cc3cc(NC(=O)N4CCc5ccccc5C4C(F)(F)F)ccc3C2=O)C(=O)N1 (stereo not drawn) [Compound 130]
45 | 0.1 to 1 µM | O=C1CCC(N2Cc3cc(NC(=O)N4CCCc5c(F)cccc54)ccc3C2=O)C(=O)N1 (stereo not drawn) [Compound 131]
46 | < 0.1 µM | CC1Cc2ccccc2N1C(=O)Nc1ccc2c(c1)CN(C1CCC(=O)NC1=O)C2=O (stereo not drawn) [Compound 138]
47 | 0.1 to 1 µM | Cc1cccc2c1N(C(=O)Nc1ccc3c(c1)CN(C1CCC(=O)NC1=O)C3=O)CCC2 (stereo not drawn) [Compound 139]
48 | < 0.1 µM | Cc1ccc2c(c1)CCCN2C(=O)Nc1ccc2c(c1)CN(C1CCC(=O)NC1=O)C2=O (stereo not drawn) [Compound 140]
49 | < 0.1 µM | O=C1CCC(N2Cc3cc(NC(=O)N4CCCc5cc(F)ccc54)ccc3C2=O)C(=O)N1 (stereo not drawn) [Compound 141]

Row | DC50 | SMILES
50 | < 0.1 µM | CC1(C)CCN(C(=O)Nc2ccc3c(c2)CN(C2CCC(=O)NC2=O)C3=O)c2ccccc21 (stereo not drawn) [Compound 143]
51 | 0.1 to 1 µM | Cc1ccc2c(c1)N(C(=O)Nc1ccc3c(c1)CN(C1CCC(=O)NC1=O)C3=O)CCC2 (stereo not drawn) [Compound 149]
52 | < 0.1 µM | CC1Cc2ccccc2N(C(=O)Nc2ccc3c(c2)CN(C2CCC(=O)NC2=O)C3=O)C1 (stereo not drawn) [Compound 153]
53 | < 0.1 µM | CC(C)(C)C1Cc2ccccc2N(C(=O)Nc2ccc3c(c2)CN(C2CCC(=O)NC2=O)C3=O)C1 (stereo not drawn) [Compound 154]
54 | 0.1 to 1 µM | CC(C)c1cccc2c1N(C(=O)Nc1ccc3c(c1)CN(C1CCC(=O)NC1=O)C3=O)CCC2 (stereo not drawn) [Compound 155]
55 | > 1 µM | CC1(C)c2ccccc2CCN1C(=O)Nc1ccc2c(c1)CN(C1CCC(=O)NC1=O)C2=O (stereo not drawn) [Compound 156]
56 | 0.1 to 1 µM | O=C1CCC(N2Cc3cc(NC(=O)N4CCCc5cccc(F)c54)ccc3C2=O)C(=O)N1 (stereo not drawn) [Compound 157]
57 | 0.1 to 1 µM | O=C1CCC(N2Cc3cc(NC(=O)N4CCCc5cccc(Cl)c54)ccc3C2=O)C(=O)N1 (stereo not drawn) [Compound 158]
58 | 0.1 to 1 µM | O=C1CCC(N2Cc3cc(NC(=O)N4CC(n5cccn5)Cc5ccccc54)ccc3C2=O)C(=O)N1 (stereo not drawn) [Compound 161]
59 | < 0.1 µM | CC1(C)Cc2ccccc2N(C(=O)Nc2ccc3c(c2)CN(C2CCC(=O)NC2=O)C3=O)C1 (stereo not drawn) [Compound 165]
60 | < 0.1 µM | CC1Cc2ccccc2C(C)N1C(=O)Nc1ccc2c(c1)CN(C1CCC(=O)NC1=O)C2=O (stereo not drawn) [Compound 166]
61 | < 0.1 µM | C[C@H]1c2ccccc2CN1C(=O)Nc1ccc2c(c1)CN(C1CCC(=O)NC1=O)C2=O (stereo partly drawn) [Compound 167]
62 | < 0.1 µM | C[C@@H]1c2ccccc2CN1C(=O)Nc1ccc2c(c1)CN(C1CCC(=O)NC1=O)C2=O (stereo partly drawn) [Compound 170]
63 | < 0.1 µM | C[C@H]1c2ccccc2[C@H](C)N1C(=O)Nc1ccc2c(c1)CN(C1CCC(=O)NC1=O)C2=O (stereo partly drawn) [Compound 172]
64 | < 0.1 µM | CC(C)C1c2ccccc2CCN1C(=O)Nc1ccc2c(c1)CN(C1CCC(=O)NC1=O)C2=O (stereo not drawn) [Compound 181]
65 | < 0.1 µM | O=C1CCC(N2Cc3cc(NC(=O)N4Cc5ccccc5C(C(F)(F)F)C4)ccc3C2=O)C(=O)N1 (stereo not drawn) [Compound 196]
66 | < 0.1 µM | CC1(C)CN(C(=O)Nc2ccc3c(c2)CN(C2CCC(=O)NC2=O)C3=O)Cc2ccccc21 (stereo not drawn) [Compound 200]
